In brackets after ≈: the same amount, converted by molar mass.
Tests used:
[1] = target: T1, FAP (Homo sapiens (Human), UniProt Q12884); experiment: hFAP inhibition assay; assay type: biochemical; settings: hFAP […], Ala-Pro-AMC 20 μM; n = 1 or geometric mean n = 2-3
Procedure, shortened: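 Compounds (10-point, 3-fold dilutions from 50 μM top) were preincubated 15 min at rt in the dark with 0.48 nM hFAP in pH 7.4 Tris/NaCl/Chaps buffer. Reaction was started with substrate (40 μM solution) and ran 30 min at rt. Read by fluorescence (340/460 nm); IC50 from one-site fit.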
Target sequence in this assay (Q12884 38-760): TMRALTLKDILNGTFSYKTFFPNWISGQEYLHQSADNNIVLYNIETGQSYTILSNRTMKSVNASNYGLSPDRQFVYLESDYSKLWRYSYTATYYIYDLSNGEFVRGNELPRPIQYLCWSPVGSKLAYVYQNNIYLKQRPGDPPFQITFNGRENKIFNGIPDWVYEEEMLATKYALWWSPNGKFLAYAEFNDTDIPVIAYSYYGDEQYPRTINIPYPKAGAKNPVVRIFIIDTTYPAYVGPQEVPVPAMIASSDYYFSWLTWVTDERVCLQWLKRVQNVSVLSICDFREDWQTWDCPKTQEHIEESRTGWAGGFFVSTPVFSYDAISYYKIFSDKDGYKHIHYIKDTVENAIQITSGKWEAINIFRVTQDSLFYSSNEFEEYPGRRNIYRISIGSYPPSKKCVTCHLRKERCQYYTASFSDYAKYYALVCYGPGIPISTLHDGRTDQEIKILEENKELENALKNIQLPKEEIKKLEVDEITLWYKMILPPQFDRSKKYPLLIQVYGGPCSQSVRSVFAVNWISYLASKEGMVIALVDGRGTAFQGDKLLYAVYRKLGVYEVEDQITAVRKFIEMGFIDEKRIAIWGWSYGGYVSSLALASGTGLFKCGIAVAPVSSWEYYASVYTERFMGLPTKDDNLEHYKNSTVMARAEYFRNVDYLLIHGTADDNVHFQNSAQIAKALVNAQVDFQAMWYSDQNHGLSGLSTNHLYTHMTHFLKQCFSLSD

[2] = target: T1, FAP; experiment: FAP plasma inhibition assay, human plasma; assay type: biochemical; settings: human plasma diluted 1:40, Ala-Pro-AMC 75 μM
Method: (§1) This assay was adapted from the method described in Example 237 for detection of FAP target engagement enzyme activity in plasma. Plasma (anticoagulant K2EDTA) was used as the enzyme source: Human plasma (Pooled from AZ Biobank), Mouse plasma (AZ AST Biobank), and Cynomolgus plasma (BioIVT, #NHP00PLK2FNN, lot CYN222895). 384-Well black fluotrack PS plates (Greiner 781076) were used. 20 μL diluted plasma (Cynomolgus and Human plasma dilution 1:40, Mouse plasma dilution 1:67) in buffer (PBS, 0.1% BSA) was added to 0.6 μL compounds (in DMSO). Compounds were tested using 10 CR, 3 fold dilution series from 500 nM FAC. Two replicates for each assay point were run on the same plate. A fluorescence blank read was taken before substrate addition. […] Plates were incubated for 40 min at rt in the dark. […] IC50 values were determined by plotting % inhibition versus log compound concentration.
Target sequence in this assay (Q12884 24-760): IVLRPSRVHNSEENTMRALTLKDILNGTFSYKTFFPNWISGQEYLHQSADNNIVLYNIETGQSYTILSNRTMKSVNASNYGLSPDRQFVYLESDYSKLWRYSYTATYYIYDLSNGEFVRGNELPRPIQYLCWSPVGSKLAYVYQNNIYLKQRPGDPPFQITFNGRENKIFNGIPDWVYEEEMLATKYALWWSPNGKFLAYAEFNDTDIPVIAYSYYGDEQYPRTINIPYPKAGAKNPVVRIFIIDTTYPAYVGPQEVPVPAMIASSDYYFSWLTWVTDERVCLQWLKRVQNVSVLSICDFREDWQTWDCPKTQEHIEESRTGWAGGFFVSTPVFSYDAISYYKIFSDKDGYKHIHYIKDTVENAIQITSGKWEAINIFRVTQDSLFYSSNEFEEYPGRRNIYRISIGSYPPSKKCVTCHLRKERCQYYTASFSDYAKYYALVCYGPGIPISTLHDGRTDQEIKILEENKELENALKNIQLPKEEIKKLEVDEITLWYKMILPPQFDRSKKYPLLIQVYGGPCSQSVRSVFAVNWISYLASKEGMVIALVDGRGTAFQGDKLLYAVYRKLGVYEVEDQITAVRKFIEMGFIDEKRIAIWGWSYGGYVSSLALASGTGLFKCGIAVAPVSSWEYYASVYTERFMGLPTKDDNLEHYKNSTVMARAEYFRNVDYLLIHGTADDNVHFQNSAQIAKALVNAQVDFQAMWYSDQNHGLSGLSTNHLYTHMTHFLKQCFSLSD

[3] = Metabolic stability in human hepatocytes (hHep); assay type: in vitro ADME; settings: n = 1 or geometric mean of n = 2
[4] = target: human Fibroblast activation protein alpha (hFAP) (Homo sapiens (Human), UniProt Q12884); experiment: hFAP inhibition assay (tight binders); assay type: biochemical; settings: Ala-Pro-AMC 20 μM, n = 1 or geometric mean n = 2-6; note: hFAP 2.4 pM
human Fibroblast activation protein alpha (hFAP), sequence (Q12884 38-760): as the sequence (Q12884 38-760) above
Method: The plates were read on a PHERAstar® reader with excitation 340 nm and emission 460 nm. Data were analyzed in Genedata Screener®. IC50 values were determined by plotting % inhibition versus log compound concentration and using a one site dose response model.

[5] = Metabolic stability in rat hepatocytes (rHep); settings: n = 1 or geometric mean of n = 2-3
[6] = Metabolic stability in human liver microsomes (HLM); settings: human
Method: Metabolic stability in HLM was measured as described in J Comput Aided Mol Des 2015, 29, 795.

[7] = target: Prolyl endopeptidase, Prolyl Oligopeptidase (hPREP) (Homo sapiens (Human), UniProt P48147); experiment: hPrep inhibition assay; assay type: biochemical; settings: hPREP 0.6 nM, Z-Gly-Pro-amino-methylcoumarin 50 μM; read-out: PREP IC50
Prolyl endopeptidase, Prolyl Oligopeptidase (hPREP), sequence (P48147 whole entry): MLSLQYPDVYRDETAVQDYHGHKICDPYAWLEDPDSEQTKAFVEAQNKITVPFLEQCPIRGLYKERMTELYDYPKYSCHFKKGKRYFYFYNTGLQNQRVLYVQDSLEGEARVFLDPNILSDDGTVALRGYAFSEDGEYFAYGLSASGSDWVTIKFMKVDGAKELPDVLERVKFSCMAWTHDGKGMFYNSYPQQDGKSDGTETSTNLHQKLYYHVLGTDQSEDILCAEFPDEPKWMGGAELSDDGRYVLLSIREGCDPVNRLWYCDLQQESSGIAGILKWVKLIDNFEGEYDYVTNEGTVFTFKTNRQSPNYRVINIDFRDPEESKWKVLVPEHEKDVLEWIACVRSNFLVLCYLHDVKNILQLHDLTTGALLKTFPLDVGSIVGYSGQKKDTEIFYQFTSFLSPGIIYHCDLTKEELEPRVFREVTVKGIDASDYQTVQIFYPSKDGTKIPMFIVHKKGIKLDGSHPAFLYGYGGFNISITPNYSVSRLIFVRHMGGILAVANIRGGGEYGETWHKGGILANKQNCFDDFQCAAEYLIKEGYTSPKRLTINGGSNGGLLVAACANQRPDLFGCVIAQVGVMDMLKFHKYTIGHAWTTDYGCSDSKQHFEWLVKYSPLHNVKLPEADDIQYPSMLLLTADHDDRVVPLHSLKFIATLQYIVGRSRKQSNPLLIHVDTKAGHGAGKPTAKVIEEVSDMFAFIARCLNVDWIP
Procedure, shortened: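 Fluorogenic read-out (340 nm excitation, 460 nm emission) after 20 min at rt, using 50 μM final Z-Gly-Pro-aminomethylcoumarin and 0.6 nM final enzyme, following 15 min compound preincubation. Buffer pH 7.5 with glutathione and Triton X-100. IC50 via one-site model on % inhibition vs log concentration.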

[8] = target: FAP (Mus musculus (Mouse), UniProt P97321); experiment: FAP plasma inhibition assay, mouse plasma; assay type: biochemical; settings: mouse plasma diluted 1:67, Ala-Pro-AMC 75 μM
FAP (Mus musculus (Mouse), UniProt P97321), sequence (P97321 24-761): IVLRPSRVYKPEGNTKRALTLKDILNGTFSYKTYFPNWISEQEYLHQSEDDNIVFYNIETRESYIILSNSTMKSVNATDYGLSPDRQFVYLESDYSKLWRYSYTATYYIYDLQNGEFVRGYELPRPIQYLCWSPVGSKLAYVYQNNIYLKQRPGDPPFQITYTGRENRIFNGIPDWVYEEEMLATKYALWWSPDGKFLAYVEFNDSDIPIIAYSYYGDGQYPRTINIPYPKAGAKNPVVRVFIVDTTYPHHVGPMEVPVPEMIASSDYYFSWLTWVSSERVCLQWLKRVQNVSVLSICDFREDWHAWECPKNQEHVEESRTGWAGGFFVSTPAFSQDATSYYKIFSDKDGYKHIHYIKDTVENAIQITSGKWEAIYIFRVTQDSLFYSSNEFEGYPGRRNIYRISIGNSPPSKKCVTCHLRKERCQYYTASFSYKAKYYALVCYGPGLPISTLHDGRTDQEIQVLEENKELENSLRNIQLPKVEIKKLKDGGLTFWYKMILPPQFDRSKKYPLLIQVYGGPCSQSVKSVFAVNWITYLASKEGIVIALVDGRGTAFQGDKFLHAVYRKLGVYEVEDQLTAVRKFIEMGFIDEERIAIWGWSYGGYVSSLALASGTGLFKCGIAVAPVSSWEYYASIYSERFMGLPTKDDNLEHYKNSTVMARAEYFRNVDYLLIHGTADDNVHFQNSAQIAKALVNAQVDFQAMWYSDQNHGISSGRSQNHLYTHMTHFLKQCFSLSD
Method: as §1

[9] = target: hFAP (M39-A757) (Homo sapiens (Human), UniProt Q12884); experiment: hFAP binding assay (surface plasmon resonance); settings: SPR, 20° C.; for hFAP Binding assay k(off) / hFAP Binding assay k(on): single cycle kinetics; for Kd: n = 1 or geometric mean n = 2-4
hFAP (M39-A757), sequence (Q12884 39-757): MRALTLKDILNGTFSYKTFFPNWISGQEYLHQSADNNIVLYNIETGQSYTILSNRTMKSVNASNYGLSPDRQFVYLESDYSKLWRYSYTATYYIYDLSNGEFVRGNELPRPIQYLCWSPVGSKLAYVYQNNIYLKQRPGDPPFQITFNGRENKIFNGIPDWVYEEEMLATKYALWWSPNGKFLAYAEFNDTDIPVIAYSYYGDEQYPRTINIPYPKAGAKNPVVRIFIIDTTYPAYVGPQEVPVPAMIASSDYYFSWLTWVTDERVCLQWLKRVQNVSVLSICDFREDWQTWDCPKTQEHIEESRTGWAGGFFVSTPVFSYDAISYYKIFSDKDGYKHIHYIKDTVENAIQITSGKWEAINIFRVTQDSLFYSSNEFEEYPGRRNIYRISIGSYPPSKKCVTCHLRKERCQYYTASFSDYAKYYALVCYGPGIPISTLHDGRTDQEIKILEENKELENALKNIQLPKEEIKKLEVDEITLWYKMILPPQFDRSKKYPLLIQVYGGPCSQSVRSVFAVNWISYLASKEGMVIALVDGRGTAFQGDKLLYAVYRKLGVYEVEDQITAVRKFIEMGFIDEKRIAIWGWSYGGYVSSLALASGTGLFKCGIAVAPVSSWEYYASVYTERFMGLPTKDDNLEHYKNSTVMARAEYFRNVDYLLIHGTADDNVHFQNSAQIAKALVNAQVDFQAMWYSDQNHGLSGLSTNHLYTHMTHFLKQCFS
Method: Compounds were tested in a direct binding assay using 8K surface plasmon resonance biosensor (GE Healthcare) at 20° C. Immobilization of hFAP (M39-A757) on a CMD200M sensor chip (Xantec) was performed using standard amine coupling procedure in immobilization buffer (10 mM HEPES, 150 mM NaCl, 0.05% Tween20, pH 7.4). The surface was washed with 10 mM NaOH, 1M NaCl before being activated with EDC/NHS (GE Healthcare), followed by immobilization of hFAP (in 10 mM Acetate pH 5.0). Finally, the surface was deactivated by ethanolamine. Immobilization levels of hFAP were around 4000-6000 RU. The reference spot was treated as described, omitting the injection of hFAP. Compound concentration series were injected over the immobilized protein in increasing concentrations (2-500 nM) using single cycle kinetics in running buffer (20 mM TRIS, 150 mM NaCl, 0.05% Tween20, 1% DMSO, pH 7.4). Interaction models were fitted globally to the experimental traces, enabling determination of kon, koff and Kd.

[10] = Kinetic solubility; settings: kinetic from dmso stock
Method: Kinetic solubility was measured as described in Comput Aided Mol Des 2015, 29, 795.

[11] = Caco-2 cell permeability; settings: human
Method: Caco-2 cell permeability was measured as described in Mol Pharm 2017, 14, 1601.

[12] = HLM CLint, n = 1 or average of n = 2-3
[13] = Solubility, kinetic solubility, n = 1 or average of n = 2-3

Compound | IC50 [1] | IC50 [2] | hHep CLint [3] | IC50 [4] | rHep CLint [5] | microsomal CLint [6, 12] | IC50 [7] | IC50 [8] | hFAP Binding assay k(off) [9] | hFAP Binding assay k(on) [9] | Kd [9] | solubility [10, 13] | Papp [11] | Papp A→B [11] | Papp B→A [11] | efflux ratio [11] | microsomal CLint [6] | solubility [10]
N#C[C@@H]1CSCN1C(=O)CNC(=O)c1ccnc2ccc(N3CC(C(F)F)C3)cc12 [Example 28, (R)—N-(2-(4-Cyanothiazolidin-3-yl)-2-oxoethyl)-6-(3-(difluoromethyl)-azetidin-1-yl)quinoline-4-carboxamide] | 0.26 nM | 0.2 nM | 2.6 μL/min/1E6 | 0.1 nM | 13 μL/min/1E6 | < 3 µL/min/mg | 580 nM | 0.5 nM | 0.00011 s⁻¹ | 1100000 M⁻¹ s⁻¹ | 0.11 nM | 73 µM (≈ 31.5 µg/mL) | 210 nm/s | 16 nm/s | 200 nm/s | 12 |  | 
CC(=O)N1CC2(C1)CN(c1ccc3nccc(C(=O)NCC(=O)N4CSC[C@H]4C#N)c3c1)C2 [Example 184, (R)-6-(6-Acetyl-2,6-diazaspiro[3.3]heptan-2-yl)-N-(2-(4-cyanothiazolidin-3-yl)-2-oxoethyl)quinoline-4-carboxamide] | 0.4 nM | 0.2 nM | <1 μL/min/1E6 | 0.22 nM | <1 μL/min/1E6 | < 3 µL/min/mg | 1100 nM | 0.6 nM | 0.000014 s⁻¹ | 950000 M⁻¹ s⁻¹ | 0.015 nM | 930 µM (≈ 432 µg/mL) | 1 nm/s | 2.5 nm/s | 7.8 nm/s | 3.1 |  | 
CC1(C)CN(c2ccc3nccc(C(=O)NCC(=O)N4CSC[C@H]4C#N)c3c2)CCO1 [Example 88, (R)—N-(2-(4-Cyanothiazolidin-3-yl)-2-oxoethyl)-6-(2,2-dimethyl-morpholino)quinoline-4-carboxamide] | 0.31 nM | 0.2 nM | <1 μL/min/1E6 | 0.074 nM | 8.6 μL/min/1E6 | 22 µL/min/mg | 1200 nM | 0.3 nM | 0.00034 s⁻¹ | 4200000 M⁻¹ s⁻¹ | 0.082 nM | > 980 µM | 130 nm/s | 13 nm/s | 290 nm/s | 23 |  | 
N#C[C@@H]1CSCN1C(=O)CNC(=O)c1ccnc2ccc(N3CC(F)(CF)C3)cc12 [Example 157, (R)—N-(2-(4-Cyanothiazolidin-3-yl)-2-oxoethyl)-6-(3-fluoro-3-(fluoromethyl)azetidin-1-yl)quinoline-4-carboxamide] |  | 0.3 nM | <1 μL/min/1E6 | 0.37 nM | <1 μL/min/1E6 | 7.3 µL/min/mg | 1200 nM | 0.6 nM | 0.00012 s⁻¹ | 1900000 M⁻¹ s⁻¹ | 0.065 nM | 62 µM (≈ 26.8 µg/mL) |  | 20 nm/s | 290 nm/s | 15 |  | 
N#C[C@@H]1CSCN1C(=O)CNC(=O)c1c(F)cnc2ccc(N3CCOCC3)cc12 [Example 2, (R)—N-(2-(4-Cyanothiazolidin-3-yl)-2-oxoethyl)-3-fluoro-6-morpholino-quinoline-4-carboxamide] |  | 8.1 nM | <1 μL/min/1E6 | 0.52 nM | 3 μL/min/1E6 | 22 µL/min/mg | 1700 nM | 7.3 nM | 0.0038 s⁻¹ | 410000 M⁻¹ s⁻¹ | 9.5 nM | 83 µM (≈ 35.6 µg/mL) | 230 nm/s | 9.8 nm/s | 310 nm/s | 32 |  | 
N#C[C@@H]1CSCN1C(=O)CNC(=O)c1ccnc2ccc(N3C[C@@H](F)[C@@H](F)C3)cc12 [Example 50, N-(2-((R)-4-Cyanothiazolidin-3-yl)-2-oxoethyl)-6-((3R,4S)-3,4-difluoropyrrolidin-1-yl)quinoline-4-carboxamide] | 0.34 nM | 0.3 nM | 1.7 μL/min/1E6 | 0.069 nM | 20 μL/min/1E6 | 13 µL/min/mg | 540 nM | 0.5 nM |  |  | 0.071 nM | 33 µM (≈ 14.2 µg/mL) |  | 8.3 nm/s | 270 nm/s | 32 |  | 
N#C[C@@H]1CSCN1C(=O)CNC(=O)c1ccnc2ccc(N3CCO[C@H](C(F)(F)F)C3)cc12 [Example 74, N-(2-((R)-4-Cyanothiazolidin-3-yl)-2-oxoethyl)-6-((S)-2-(trifluoromethyl)-morpholino)quinoline-4-carboxamide] |  | 0.2 nM | <1 μL/min/1E6 | 0.094 nM | 13 μL/min/1E6 | 28 µL/min/mg | 2300 nM | 0.3 nM | 0.00016 s⁻¹ | 1100000 M⁻¹ s⁻¹ | 0.14 nM | 180 µM (≈ 86.3 µg/mL) |  | 18 nm/s | 530 nm/s | 29 |  | 
N#C[C@@H]1CSCN1C(=O)CNC(=O)c1ccnc2ccc(N3CC4(COC4)C3)cc12 [Example 166, (R)—N-(2-(4-Cyanothiazolidin-3-yl)-2-oxoethyl)-6-(2-oxa-6-azaspiro[3.3]heptan-6-yl)quinoline-4-carboxamide] | 0.34 nM | 0.3 nM | <1 μL/min/1E6 | 0.22 nM | <1 μL/min/1E6 |  | 1700 nM | 0.6 nM | 0.000049 s⁻¹ | 2200000 M⁻¹ s⁻¹ | 0.03 nM |  | 20 nm/s | 5.6 nm/s | 130 nm/s | 24 | < 3 µL/min/mg | > 910 µM
